System: K98450-129-R-PDC multicell spheroids, viability
Experiment: Anticancer human tumor K98450-129-R-PDC patient-derived colon adenocarcinoma cell line growth inhibition [PI3K]
Settings: for IC50: curve of first compound; for viability, T/C: stronger effect = lower value
Procedure, shortened: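 Stroma-containing spheroids: tumor line, pooled-donor HUVEC, hMSC. Treatments: targeted agents with PI3K inhibitors. Dosing: clinically relevant, half-log spacing, 10 microM ceiling without known Cmax. Read-out: cell viability.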
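Further: spheroids exposed to agents for seven days before read-out.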

Question: For `Cn1cnc2c(F)c(Nc3ccc(Br)cc3Cl)c(C(=O)NOCCO)cc21` + COc1c(OCCCN2CCOCC2)ccc2c3n(c(=NC(=O)c4cnc(N)nc4)nc12)CCN3, which IC50 (second compound 0.00316 µM) is on record?
Answer: 0.663 µM

Question: And the IC50 (second compound 0.01 µM)?
Answer: 1 µM

Question: And the IC50 (second compound 0.0316 µM)?
Answer: 0.351 µM

Question: And the IC50 (second compound 0.1 µM)?
Answer: 0.303 µM

Question: What about the IC50 (second compound 0.316 µM) of the same compound?
Answer: 0.102 µM

Question: And the IC50 (second compound 1 µM)?
Answer: < 0.00949 µM

Question: And the viability, T/C (second compound 0.00316 µM, first compound 0.00949 µM)?
Answer: 98.5%

Question: What about the viability, T/C (second compound 0.00316 µM, first compound 0.03 µM) of the same compound?
Answer: 77.5%

Question: What about the viability, T/C (second compound 0.00316 µM, first compound 0.0949 µM) of the same compound?
Answer: 76.3%

Question: And the viability, T/C (second compound 0.00316 µM, first compound 0.3 µM)?
Answer: 68.8%

Question: What about the viability, T/C (second compound 0.00316 µM, first compound 0.949 µM) of the same compound?
Answer: 41.5%

Question: And the viability, T/C (second compound 0.00316 µM, first compound 3 µM)?
Answer: 21.3%

Question: And the viability, T/C (second compound 0.01 µM, first compound 0.00949 µM)?
Answer: 94.7%

Question: And the viability, T/C (second compound 0.01 µM, first compound 0.03 µM)?
Answer: 77.9%

Question: What about the viability, T/C (second compound 0.01 µM, first compound 0.0949 µM) of the same compound?
Answer: 74.6%

Question: What about the viability, T/C (second compound 0.01 µM, first compound 0.3 µM) of the same compound?
Answer: 65.5%

Question: And the viability, T/C (second compound 0.01 µM, first compound 0.949 µM)?
Answer: 58.9%

Question: What about the viability, T/C (second compound 0.01 µM, first compound 3 µM) of the same compound?
Answer: 18.2%

Question: And the viability, T/C (second compound 0.0316 µM, first compound 0.00949 µM)?
Answer: 91.6%

Question: And the viability, T/C (second compound 0.0316 µM, first compound 0.03 µM)?
Answer: 86.1%

Question: What about the viability, T/C (second compound 0.0316 µM, first compound 0.0949 µM) of the same compound?
Answer: 66%

Question: And the viability, T/C (second compound 0.0316 µM, first compound 0.3 µM)?
Answer: 50.2%

Question: And the viability, T/C (second compound 0.0316 µM, first compound 0.949 µM)?
Answer: 37.7%

Question: What about the viability, T/C (second compound 0.0316 µM, first compound 3 µM) of the same compound?
Answer: 14.7%

Question: What about the viability, T/C (second compound 0.1 µM, first compound 0.00949 µM) of the same compound?
Answer: 87.4%

Question: And the viability, T/C (second compound 0.1 µM, first compound 0.03 µM)?
Answer: 71.4%

Question: What about the viability, T/C (second compound 0.1 µM, first compound 0.0949 µM) of the same compound?
Answer: 71.8%

Question: What about the viability, T/C (second compound 0.1 µM, first compound 0.3 µM) of the same compound?
Answer: 49.9%

Question: What about the viability, T/C (second compound 0.1 µM, first compound 0.949 µM) of the same compound?
Answer: 26.7%

Question: And the viability, T/C (second compound 0.1 µM, first compound 3 µM)?
Answer: 5.26%

Question: What about the viability, T/C (second compound 0.316 µM, first compound 0.00949 µM) of the same compound?
Answer: 56.4%

Question: What about the viability, T/C (second compound 0.316 µM, first compound 0.03 µM) of the same compound?
Answer: 49.9%

Question: And the viability, T/C (second compound 0.316 µM, first compound 0.0949 µM)?
Answer: 47.8%

Question: What about the viability, T/C (second compound 0.316 µM, first compound 0.3 µM) of the same compound?
Answer: 39.2%

Question: What about the viability, T/C (second compound 0.316 µM, first compound 0.949 µM) of the same compound?
Answer: 11.4%

Question: And the viability, T/C (second compound 0.316 µM, first compound 3 µM)?
Answer: 6.72%

Question: And the viability, T/C (second compound 1 µM, first compound 0.00949 µM)?
Answer: 45.9%

Question: What about the viability, T/C (second compound 1 µM, first compound 0.03 µM) of the same compound?
Answer: 37.8%

Question: What about the viability, T/C (second compound 1 µM, first compound 0.0949 µM) of the same compound?
Answer: 29.8%

Question: What about the viability, T/C (second compound 1 µM, first compound 0.3 µM) of the same compound?
Answer: 22.6%

Question: And the viability, T/C (second compound 1 µM, first compound 0.949 µM)?
Answer: 9.08%

Question: What about the viability, T/C (second compound 1 µM, first compound 3 µM) of the same compound?
Answer: 4.95%

Question: Which results are given for `C=CC(=O)N1CCN(c2nc(=O)n(-c3c(C)ccnc3C(C)C)c3nc(-c4c(O)cccc4F)c(F)cc23)C(C)C1` (stereo not drawn)?
Answer: viability, T/C (compound 0.0316 µM): 104% [middle of 4 runs]; viability, T/C (compound 0.1 µM): 98.4% [middle of 4 runs]; viability, T/C (compound 0.316 µM): 102% [middle of 4 runs]; viability, T/C (compound 3.16 µM): 56% [middle of 4 runs]

Question: Which results are given for `CC(C)NCC(C(=O)N1CCN(c2ncnc3c2C(C)CC3O)CC1)c1ccc(Cl)cc1` (stereo not drawn) + Cc1nc(NC(=O)N2CCCC2C(N)=O)sc1-c1ccnc(C(C)(C)C(F)(F)F)c1?
Answer: IC50 (second compound 0.0316 µM): > 10 µM; IC50 (second compound 0.1 µM): > 10 µM; IC50 (second compound 0.316 µM): > 10 µM; IC50 (second compound 1 µM): > 10 µM; IC50 (second compound 3.16 µM): > 10 µM; IC50 (second compound 10 µM): > 10 µM; viability, T/C (second compound 0.0316 µM, first compound 0.0316 µM): 104%; viability, T/C (second compound 0.0316 µM, first compound 0.1 µM): 99.1%; viability, T/C (second compound 0.0316 µM, first compound 0.316 µM): 107%; viability, T/C (second compound 0.0316 µM, first compound 1 µM): 104%; viability, T/C (second compound 0.0316 µM, first compound 3.16 µM): 100%; viability, T/C (second compound 0.0316 µM, first compound 10 µM): 102%; viability, T/C (second compound 0.1 µM, first compound 0.0316 µM): 108%; viability, T/C (second compound 0.1 µM, first compound 0.1 µM): 98.8%; viability, T/C (second compound 0.1 µM, first compound 0.316 µM): 103%; viability, T/C (second compound 0.1 µM, first compound 1 µM): 100%; viability, T/C (second compound 0.1 µM, first compound 3.16 µM): 103%; viability, T/C (second compound 0.1 µM, first compound 10 µM): 99.9%; viability, T/C (second compound 0.316 µM, first compound 0.0316 µM): 104%; viability, T/C (second compound 0.316 µM, first compound 0.1 µM): 105%; viability, T/C (second compound 0.316 µM, first compound 0.316 µM): 104%; viability, T/C (second compound 0.316 µM, first compound 1 µM): 95.2%; viability, T/C (second compound 0.316 µM, first compound 3.16 µM): 101%; viability, T/C (second compound 0.316 µM, first compound 10 µM): 97%; viability, T/C (second compound 1 µM, first compound 0.0316 µM): 84.6%; viability, T/C (second compound 1 µM, first compound 0.1 µM): 93.1%; viability, T/C (second compound 1 µM, first compound 0.316 µM): 96.5%; viability, T/C (second compound 1 µM, first compound 1 µM): 89.6%; viability, T/C (second compound 1 µM, first compound 3.16 µM): 102%; viability, T/C (second compound 1 µM, first compound 10 µM): 94.5%; viability, T/C (second compound 3.16 µM, first compound 0.0316 µM): 86.6%; viability, T/C (second compound 3.16 µM, first compound 0.1 µM): 84.1%; viability, T/C (second compound 3.16 µM, first compound 0.316 µM): 90.2%; viability, T/C (second compound 3.16 µM, first compound 1 µM): 80.3%; viability, T/C (second compound 3.16 µM, first compound 3.16 µM): 95.6%; viability, T/C (second compound 3.16 µM, first compound 10 µM): 91.1%; viability, T/C (second compound 10 µM, first compound 0.0316 µM): 70.7%; viability, T/C (second compound 10 µM, first compound 0.1 µM): 78%; viability, T/C (second compound 10 µM, first compound 0.316 µM): 77%; viability, T/C (second compound 10 µM, first compound 1 µM): 73.1%; viability, T/C (second compound 10 µM, first compound 3.16 µM): 78.1%; viability, T/C (second compound 10 µM, first compound 10 µM): 75%

— PubChem BioAssay AID1963961 (Molecular Pharmacology Branch, DTP, NCI, 2024)
